Test [1] has as its target T1, Cysteinyl leukotriene receptor 1 (Cavia porcellus, UniProt Q2NNR5).
T1 sequence (Q2NNR5 whole entry): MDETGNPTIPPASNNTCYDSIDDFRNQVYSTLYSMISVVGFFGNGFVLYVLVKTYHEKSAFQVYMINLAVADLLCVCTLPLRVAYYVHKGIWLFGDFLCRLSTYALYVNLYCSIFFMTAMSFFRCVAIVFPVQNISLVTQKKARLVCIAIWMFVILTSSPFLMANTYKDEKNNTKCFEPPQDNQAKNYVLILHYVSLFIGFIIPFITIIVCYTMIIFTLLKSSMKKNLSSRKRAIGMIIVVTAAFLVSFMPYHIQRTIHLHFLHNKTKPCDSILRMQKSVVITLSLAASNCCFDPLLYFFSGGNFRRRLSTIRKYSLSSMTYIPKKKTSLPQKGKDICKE
Briefly: Displacement of [3H]leukotriene D4 (LTD4) from receptor in guinea pig lung membranes. Format: cell membranes, Membrane. (Displacement assays read how much labelled ligand stays bound in the presence of the test substance.)

The target of test [2] is T2, Adrenergic receptor alpha-1 (Homo sapiens, UniProt P35348+P25100+P35368).
T2 sequence (P35348 whole entry): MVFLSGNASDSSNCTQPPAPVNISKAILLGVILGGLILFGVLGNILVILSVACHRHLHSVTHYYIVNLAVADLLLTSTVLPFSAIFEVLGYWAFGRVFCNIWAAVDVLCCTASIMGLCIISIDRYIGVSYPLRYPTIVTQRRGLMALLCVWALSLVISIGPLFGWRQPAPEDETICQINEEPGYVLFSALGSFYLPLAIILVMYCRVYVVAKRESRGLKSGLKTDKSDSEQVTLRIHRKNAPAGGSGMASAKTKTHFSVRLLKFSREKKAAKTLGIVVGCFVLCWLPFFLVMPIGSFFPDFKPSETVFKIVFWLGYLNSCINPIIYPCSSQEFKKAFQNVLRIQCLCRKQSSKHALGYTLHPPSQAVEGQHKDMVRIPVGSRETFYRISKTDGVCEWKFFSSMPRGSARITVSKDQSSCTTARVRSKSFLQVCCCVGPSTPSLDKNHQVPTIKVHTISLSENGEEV
T2 sequence (P25100 whole entry): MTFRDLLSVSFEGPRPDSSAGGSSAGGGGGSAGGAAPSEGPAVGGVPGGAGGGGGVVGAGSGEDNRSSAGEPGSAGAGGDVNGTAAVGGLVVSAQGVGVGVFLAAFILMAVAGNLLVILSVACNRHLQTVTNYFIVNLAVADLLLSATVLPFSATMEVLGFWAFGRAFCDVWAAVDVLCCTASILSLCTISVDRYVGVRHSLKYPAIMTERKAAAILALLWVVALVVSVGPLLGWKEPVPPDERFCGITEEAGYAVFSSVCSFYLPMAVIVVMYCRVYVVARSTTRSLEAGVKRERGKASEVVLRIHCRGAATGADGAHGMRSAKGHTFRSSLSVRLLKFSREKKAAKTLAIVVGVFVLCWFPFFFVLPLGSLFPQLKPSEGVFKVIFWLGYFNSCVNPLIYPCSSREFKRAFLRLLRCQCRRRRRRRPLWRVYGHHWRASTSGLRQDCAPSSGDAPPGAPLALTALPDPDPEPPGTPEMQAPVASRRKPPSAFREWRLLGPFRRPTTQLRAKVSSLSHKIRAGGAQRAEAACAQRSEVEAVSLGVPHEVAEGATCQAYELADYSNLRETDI
T2 sequence (P35368 whole entry): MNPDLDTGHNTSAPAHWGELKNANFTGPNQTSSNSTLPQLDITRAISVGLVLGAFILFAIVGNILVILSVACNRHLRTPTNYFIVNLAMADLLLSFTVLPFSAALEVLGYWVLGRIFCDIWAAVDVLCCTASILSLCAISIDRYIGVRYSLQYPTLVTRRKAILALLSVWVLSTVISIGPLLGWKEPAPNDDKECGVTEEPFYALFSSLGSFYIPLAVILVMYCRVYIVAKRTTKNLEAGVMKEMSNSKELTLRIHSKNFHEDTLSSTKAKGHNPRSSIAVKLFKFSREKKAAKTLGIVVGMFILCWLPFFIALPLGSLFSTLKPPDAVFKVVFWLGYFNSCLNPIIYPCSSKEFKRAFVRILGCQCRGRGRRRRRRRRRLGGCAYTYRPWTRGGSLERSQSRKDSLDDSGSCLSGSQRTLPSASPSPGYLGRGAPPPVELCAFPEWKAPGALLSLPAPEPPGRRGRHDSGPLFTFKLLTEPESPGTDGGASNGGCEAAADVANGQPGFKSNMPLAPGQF
The test is described as follows: Inhibitory concentration against Alpha-1 adrenergic receptor. Format: protein assay.

For test [3], the system named is Cavia porcellus. Briefly: In vivo bronchoprotective effect against LTD4 induced bronchoconstriction in guinea pigs after intravenous administration. Format: functional.
Test [4] relates to Cavia porcellus. The test is described as follows: Combined airway obstructive effect against LTD4 stimulated by aerosolized antigen challenge in guinea pigs after peroral administration. Format: functional.
A further test concerns the target T3, Adenosine receptor A1 (Homo sapiens, UniProt P30542).
T3 sequence (P30542 whole entry): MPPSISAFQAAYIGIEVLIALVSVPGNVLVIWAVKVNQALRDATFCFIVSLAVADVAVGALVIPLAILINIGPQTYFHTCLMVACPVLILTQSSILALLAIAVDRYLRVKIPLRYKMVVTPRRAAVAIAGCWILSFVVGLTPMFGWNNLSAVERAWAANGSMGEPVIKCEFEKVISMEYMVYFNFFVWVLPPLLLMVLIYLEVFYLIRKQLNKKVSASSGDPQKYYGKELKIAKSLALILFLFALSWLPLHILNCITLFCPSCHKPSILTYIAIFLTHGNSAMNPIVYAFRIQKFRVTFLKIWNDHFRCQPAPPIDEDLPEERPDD
Briefly: Inhibitory concentration against Adenosine A1 receptor.

A short description of test [5]: Inhibitory concentration against 5-hydroxytryptamine 1 receptor.
Test [6] addresses T4, Adrenergic receptor alpha-2 (Homo sapiens, UniProt P08913+P18825+P18089).
T4 sequence (P08913 whole entry): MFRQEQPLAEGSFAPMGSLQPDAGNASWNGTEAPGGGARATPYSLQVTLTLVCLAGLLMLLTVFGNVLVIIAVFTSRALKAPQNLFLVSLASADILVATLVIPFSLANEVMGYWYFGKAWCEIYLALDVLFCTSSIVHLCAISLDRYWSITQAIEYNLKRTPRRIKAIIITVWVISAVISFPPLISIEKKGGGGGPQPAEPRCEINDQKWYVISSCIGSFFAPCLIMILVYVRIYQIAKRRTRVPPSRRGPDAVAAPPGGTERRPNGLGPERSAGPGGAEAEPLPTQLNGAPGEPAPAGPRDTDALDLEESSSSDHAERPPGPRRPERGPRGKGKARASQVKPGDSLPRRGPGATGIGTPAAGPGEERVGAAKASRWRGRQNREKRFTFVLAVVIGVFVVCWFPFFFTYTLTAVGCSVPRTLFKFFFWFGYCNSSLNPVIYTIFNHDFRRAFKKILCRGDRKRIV
T4 sequence (P18825 whole entry): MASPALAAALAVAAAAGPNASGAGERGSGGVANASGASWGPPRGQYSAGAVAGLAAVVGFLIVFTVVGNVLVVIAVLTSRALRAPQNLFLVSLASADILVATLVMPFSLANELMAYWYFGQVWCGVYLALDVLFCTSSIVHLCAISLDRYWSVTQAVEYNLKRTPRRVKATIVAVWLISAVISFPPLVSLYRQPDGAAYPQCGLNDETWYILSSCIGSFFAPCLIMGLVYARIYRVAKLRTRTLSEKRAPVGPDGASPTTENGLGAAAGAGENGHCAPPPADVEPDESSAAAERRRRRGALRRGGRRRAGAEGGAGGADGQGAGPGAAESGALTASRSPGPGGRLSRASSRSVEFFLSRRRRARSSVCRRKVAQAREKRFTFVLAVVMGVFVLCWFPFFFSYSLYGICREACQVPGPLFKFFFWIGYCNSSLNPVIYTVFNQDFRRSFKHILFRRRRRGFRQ
T4 sequence (P18089 whole entry): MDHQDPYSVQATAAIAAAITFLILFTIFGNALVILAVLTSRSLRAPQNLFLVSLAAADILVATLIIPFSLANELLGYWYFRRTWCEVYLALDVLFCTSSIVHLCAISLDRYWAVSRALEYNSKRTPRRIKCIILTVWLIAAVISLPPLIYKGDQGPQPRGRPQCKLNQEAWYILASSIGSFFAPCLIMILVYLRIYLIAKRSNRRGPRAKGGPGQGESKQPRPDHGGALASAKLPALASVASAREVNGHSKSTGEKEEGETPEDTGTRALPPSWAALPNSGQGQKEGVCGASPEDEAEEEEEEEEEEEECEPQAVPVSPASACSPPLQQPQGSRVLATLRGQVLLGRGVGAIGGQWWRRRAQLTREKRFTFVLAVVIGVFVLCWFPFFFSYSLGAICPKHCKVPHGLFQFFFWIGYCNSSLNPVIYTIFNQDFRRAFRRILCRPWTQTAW
Briefly: Inhibitory concentration against Alpha-2 adrenergic receptor. Format: protein assay.

Test [7] addresses T1, Cysteinyl leukotriene receptor 1. The test is described as follows: Displacement of [3H]LTD4 from receptor in guinea pig lung membranes. Format: cell membranes, Membrane.
The next test deals with D(2) dopamine receptor (Homo sapiens, UniProt P14416). The test is described as follows: Inhibitory concentration against Dopamine receptor D2.
The target of test [8] is GABA-A receptor; anion channel. Briefly: Inhibition of Gamma-aminobutyric acid receptor. Format: protein-complex assay.
The target of test [9] is Muscarinic acetylcholine receptor. The test is described as follows: Inhibitory concentration against muscarinic receptor. Format: protein assay.
A further test deals with Mu-type opioid receptor (Homo sapiens, UniProt P35372). Briefly: Inhibitory concentration against Opioid receptor mu 1.
In another test the target is Histamine H1 receptor (Homo sapiens, UniProt P35367). Briefly: Inhibitory concentration against H1 receptor.
In test [10] the test system is Cavia porcellus. Briefly: In vivo bronchoprotective effect against PAF induced bronchoconstriction in guinea pigs after intravenous administration. Format: functional.
In another test the target is Adrenergic receptor beta (Homo sapiens, UniProt P08588+P07550+P13945). The test is described as follows: Inhibitory concentration against Beta adrenergic receptor. Format: protein assay.
The target in test [11] is Serotonin 2 (5-HT2) receptor (Homo sapiens, UniProt P41595+P28223+P28335). Briefly: Inhibitory concentration against 5-hydroxytryptamine 2 receptor. Format: protein assay.
Test [12] deals with Cavia porcellus. The test is described as follows: In vivo bronchoprotective effect against […] induced bronchoconstriction in guinea pigs after intravenous administration. Format: functional.

For orientation: Ki means a measure of affinity in units of concentration, obtained from inhibition or displacement. Low readings indicate a stronger hold on the target, high ones a looser hold on the target. As usually defined, the IC50 is the midpoint of a concentration-inhibition curve. Lower therefore signals greater potency in that assay. For orientation: ED50 means the dose that gives a 50% effect, or the effect in half of the subjects.

Molecules are shown by their SMILES.

Sequence of D(2) dopamine receptor (P14416 whole entry): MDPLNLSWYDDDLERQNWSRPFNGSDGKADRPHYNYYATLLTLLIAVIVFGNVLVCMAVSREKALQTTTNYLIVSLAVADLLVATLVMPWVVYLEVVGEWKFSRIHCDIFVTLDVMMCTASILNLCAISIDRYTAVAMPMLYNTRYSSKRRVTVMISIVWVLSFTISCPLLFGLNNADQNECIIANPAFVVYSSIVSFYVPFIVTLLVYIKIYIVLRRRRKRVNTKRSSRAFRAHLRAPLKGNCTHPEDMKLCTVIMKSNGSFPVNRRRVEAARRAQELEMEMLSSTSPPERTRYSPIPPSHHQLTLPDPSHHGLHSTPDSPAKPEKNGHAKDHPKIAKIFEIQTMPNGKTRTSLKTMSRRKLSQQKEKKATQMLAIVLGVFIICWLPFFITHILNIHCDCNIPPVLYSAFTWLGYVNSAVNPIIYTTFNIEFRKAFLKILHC
Sequence of Mu-type opioid receptor (P35372 whole entry): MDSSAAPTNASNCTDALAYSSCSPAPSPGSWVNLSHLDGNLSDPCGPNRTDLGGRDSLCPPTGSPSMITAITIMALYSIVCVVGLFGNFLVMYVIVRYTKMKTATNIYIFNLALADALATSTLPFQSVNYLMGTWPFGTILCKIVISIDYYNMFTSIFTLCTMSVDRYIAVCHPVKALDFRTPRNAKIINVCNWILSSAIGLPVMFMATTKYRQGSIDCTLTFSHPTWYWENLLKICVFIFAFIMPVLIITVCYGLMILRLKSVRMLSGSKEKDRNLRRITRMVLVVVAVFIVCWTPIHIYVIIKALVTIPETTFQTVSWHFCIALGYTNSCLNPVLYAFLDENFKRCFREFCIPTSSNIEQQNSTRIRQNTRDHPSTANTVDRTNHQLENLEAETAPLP
Sequence of Histamine H1 receptor (P35367 whole entry): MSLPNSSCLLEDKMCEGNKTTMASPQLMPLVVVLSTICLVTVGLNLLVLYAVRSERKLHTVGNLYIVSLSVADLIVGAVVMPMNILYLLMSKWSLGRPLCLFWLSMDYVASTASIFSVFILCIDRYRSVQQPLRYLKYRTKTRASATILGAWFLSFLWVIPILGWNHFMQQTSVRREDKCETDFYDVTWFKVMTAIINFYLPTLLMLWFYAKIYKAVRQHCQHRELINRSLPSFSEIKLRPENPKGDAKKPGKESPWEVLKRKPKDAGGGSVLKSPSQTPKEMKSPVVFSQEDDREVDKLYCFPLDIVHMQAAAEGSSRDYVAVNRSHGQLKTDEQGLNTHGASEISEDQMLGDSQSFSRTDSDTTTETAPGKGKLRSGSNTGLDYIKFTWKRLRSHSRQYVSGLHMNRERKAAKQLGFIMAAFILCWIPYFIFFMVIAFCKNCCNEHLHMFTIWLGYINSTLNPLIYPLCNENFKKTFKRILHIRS

In turn, `Cc1nc2cnccc2n1-c1ccc(OCc2cccc(/C=C/c3ccc4ccccc4n3)c2)cc1` gave a Ki in [1] of 0.073 µM.
`Cc1nc2cnccc2n1-c1ccc(OCc2cccc(/C=C/c3ccc4ccc(Cl)cc4n3)c2)cc1`: the IC50 (in test [2]; against Adenosine receptor A1; in test [5]; in [6]; on D(2) dopamine receptor; in test [8]) was over 10 µM throughout. The IC50 (in [9]; against Mu-type opioid receptor; at Histamine H1 receptor; against Adrenergic receptor beta; in [11]) was over 10 µM in each case. In addition, the values for the ED50 in the test on Cavia porcellus [3], in the test with Cavia porcellus [4] and in the test with Cavia porcellus [10] were 0.27 mg/kg, 1.7 mg/kg and 0.26 mg/kg, respectively. The Ki in test [7] was 0.02 µM.
Turning to `CCOC(=O)C1=C(c2ccc(-n3c(C)nc4cnccc43)cc2)NC(C)=C(C(=O)Nc2ccccn2)C1c1ccccc1Cl` (configuration not stated), the Ki in test [1] was over 30 µM. The ED50 with Cavia porcellus [4] was determined as 1.9 mg/kg; in the test on Cavia porcellus [12], 0.33 mg/kg.
Take `Cc1nc2cnccc2n1-c1ccc(OCc2cccc(/C=C/c3nc4cc(F)ccc4s3)c2)cc1`: the IC50 (in test [2]; on Adenosine receptor A1; in [5]; in test [6]; at D(2) dopamine receptor; in test [8]) was over 10 µM throughout. For the same molecule, the IC50 (in [9]; on Mu-type opioid receptor; against Histamine H1 receptor; against Adrenergic receptor beta; in [11]) was over 10 µM in each case. For the same molecule, the inhibition constant (Ki) in test [1] was 0.034 µM. The median effective dose (ED50) in the test with Cavia porcellus [3] was 0.46 mg/kg; with Cavia porcellus [4], 1.8 mg/kg; in the test with Cavia porcellus [12] it was 0.16 mg/kg.
Take `COc1cc(C(=O)NS(=O)(=O)c2ccccc2C)ccc1Cc1cn(C)c2ccc(NC(=O)OC3CCCC3)cc12` [ZAFIRLUKAST]: the IC50 (in test [2]; on Adenosine receptor A1; on D(2) dopamine receptor; in [8]; against Mu-type opioid receptor; on Adrenergic receptor beta) was over 10 µM in each case. Besides, the figures for the ED50 with Cavia porcellus [3] and with Cavia porcellus [4] were 0.21 mg/kg and 3.5 mg/kg, respectively.
